Measurements taken from the supplement of paper PMC10307832.

Columns and labels:
Test in all cases: relative viability (nuclei count vs DMSO), 5 days (fraction); higher = more cells survive
[1] = compound: O=C(c1cc(Cc2n[nH]c(=O)c3ccccc23)ccc1F)N1CCN(C(=O)C2CC2)CC1 [Olaparib] + CC(C)C[C@H](NC(=O)[C@H](Cc1ccccc1)NC(=O)c1cnccn1)B(O)O [Bortezomib] (partner 0.002 µM)
Procedure, shortened: (§1)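 Relative viability divides the nuclei count in treated wells by that in vehicle wells. Lung cancer cell lines were seeded in 1536-well plates, dosed by pin tool the next day, and fixed and stained after 5 days in one step with final 0.05% Triton X-100, 1% formaldehyde and 1 ug/ml Hoechst. Dosing was a single drug or a fixed anchor-drug dose plus five library-drug doses (not always all listed) in √10 steps, and values are medians of duplicate plates imaged at 4×.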

[2] = compound: O=C(c1cc(Cc2n[nH]c(=O)c3ccccc23)ccc1F)N1CCN(C(=O)C2CC2)CC1 [Olaparib] + Nc1ncn([C@H]2C[C@H](O)[C@@H](CO)O2)c(=O)n1 [Decitabine] (partner 2 µM)
Procedure, shortened: as §1

[3] = compound: CC(C)C[C@H](NC(=O)[C@H](CCc1ccccc1)NC(=O)CN1CCOCC1)C(=O)N[C@@H](Cc1ccccc1)C(=O)N[C@@H](CC(C)C)C(=O)[C@@]1(C)CO1 [Carfilzomib] + CC1(C)CCC(c2ccc(Cl)cc2)=C(CN2CCN(c3ccc(C(=O)NS(=O)(=O)c4ccc(N[C@H](CCN5CCOCC5)CSc5ccccc5)c(S(=O)(=O)C(F)(F)F)c4)cc3)CC2)C1 [Navitoclax] (partner 0.5 µM)
Procedure, shortened: as §1

[4] = compound: CC(C)C[C@H](NC(=O)[C@H](CCc1ccccc1)NC(=O)CN1CCOCC1)C(=O)N[C@@H](Cc1ccccc1)C(=O)N[C@@H](CC(C)C)C(=O)[C@@]1(C)CO1 [Carfilzomib] + N=C(N)NC(=N)NCCc1ccccc1 [Phenformin] (partner 250 µM)
Procedure, shortened: as §1

Cell Line | relative viability ([1]; first compound 0.08 µM) | relative viability ([1]; first compound 0.253 µM) | relative viability ([1]; first compound 2.53 µM) | relative viability ([1]; first compound 8 µM) | relative viability ([2]; first compound 0.08 µM) | relative viability ([2]; first compound 0.253 µM) | relative viability ([2]; first compound 2.53 µM) | relative viability ([2]; first compound 8 µM) | relative viability ([3]; first compound 0.001 µM) | relative viability ([3]; first compound 0.003162 µM) | relative viability ([3]; first compound 0.01 µM) | relative viability ([3]; first compound 0.03162 µM) | relative viability ([3]; first compound 0.1 µM) | relative viability ([4]; first compound 0.001 µM) | relative viability ([4]; first compound 0.003162 µM) | relative viability ([4]; first compound 0.01 µM) | relative viability ([4]; first compound 0.03162 µM) | relative viability ([4]; first compound 0.1 µM)
NCI-H1437 | 0.504 | 0.422 | 0.529 | 0.424 | 0.458 | 0.391 | 0.434 | 0.386 | 1.08 | 1.12 | 1.12 | 0.759 | 0.12 | 0.306 | 0.346 | 0.301 | 0.249 | 0.123
NCI-H1650 | 0.265 | 0.196 | 0.232 | 0.197 | 0.432 | 0.39 | 0.32 | 0.354 |  | 1.09 | 1.24 | 0.1 | 0.119 | 0.421 | 0.254 | 0.232 | 0.174 | 0.156
NCI-H1651 | 0.892 | 0.901 | 0.781 | 0.451 | 0.356 | 0.277 | 0.224 | 0.168 | 1.11 | 1.06 | 0.728 | 0.123 | 0.0777 | 0.33 | 0.342 | 0.173 | 0.133 | 0.0929
NCI-H1666 | 0.771 | 0.799 | 0.633 | 0.65 | 0.778 | 0.604 | 0.636 | 0.597 | 1.07 | 0.963 | 1.05 | 0.929 | 0.263 | 0.594 | 0.569 | 0.528 | 0.428 | 0.278
NCI-H1734 | 1.06 | 0.835 | 0.91 | 0.614 | 0.418 | 0.311 | 0.237 | 0.229 | 0.831 | 1.05 | 0.803 | 0.584 | 0.0981 | 0.375 | 0.404 | 0.331 | 0.18 | 0.104
NCI-H1755 | 1.03 | 0.92 | 0.921 | 0.893 | 0.666 | 0.621 | 0.577 | 0.562 | 0.972 | 0.989 | 0.994 | 0.841 | 0.198 | 0.623 | 0.664 | 0.66 | 0.592 | 0.238
NCI-H1792 | 1.02 | 0.735 | 0.804 | 0.784 | 0.336 | 0.264 | 0.234 | 0.19 | 0.575 | 0.628 | 0.563 | 0.612 | 0.555 | 0.188 | 0.357 | 0.262 | 0.234 | 0.0821
NCI-H1915 | 0.957 | 0.758 | 0.792 | 0.645 | 0.242 | 0.239 | 0.234 | 0.196 | 0.717 | 0.785 | 0.762 | 0.438 | 0.0486 | 0.367 | 0.403 | 0.359 | 0.255 | 0.0555
NCI-H1975 | 0.424 | 0.364 | 0.403 | 0.319 | 0.339 | 0.312 | 0.331 | 0.248 | 1.05 | 1.23 | 0.416 | 0.213 | 0.144 |  | 0.367 | 0.197 | 0.0933 | 0.0936
